From US10738275B2, “Paenibacillus sp. strain, cultivation method and use of the same” (BRIGHT DAIRY & FOOD CO., LTD, priority 2016, dated 2020)

Assays:
All bacteria = assay: in-vitro culture of infant fecal flora, PCR-intestinal microarray detection; type: cell-based, infants' fecal flora; details: 0.4% (w/v) added, infant fecal flora in SIEM, anaerobic, 8 hours, 37° C.; blank control defined as 0
Protocol: (§1) The standard culture solution of fecal flora is prepared in accordance with the method of Minekus et al (Models of the gastrointestinal tract to study microbial interactions Original Research Article Biology of Growing Animals, 2005, 2:142-154).
(2) Certain amount of standard ileum efflux culture medium (SIEM, with 0.047 g/L pectin, 0.047 g/L xyloglucan, 0.047 g/L arabinogalactan, 0.047 g/L amylose, 0.392 g/L starch, 24.0 g/L casein, 17.0 g/L Tween 80, 24.0 g/L bacto peptone, 0.4 g/L oxgall, and 0.2 g/L cysteine) is added into a 96-well microtitration plate. Then, the 0.1% of the standard culture solution of fecal flora is added. The percentage refers to the volume percentage of the standard ileum efflux culture medium. Then, 0.4% of the purified extracellular polysaccharide (“BD3526 extracellular polysaccharide” for short) obtained in Example 11 and 0.4% of the commercialized fructooligosaccharide (FOS for short) are added into different wells among the 96 wells respectively. The final volume of liquid in each well is 1.5 mL. Meanwhile, the blank control is arranged. They are anaerobically cultured for 8 hours under 37° C. The percentage refers to the mass-volume percentage of the final volume of the liquid in a well of the 96-well microtitration plate. […]

B. Longum = assay: as above; type: cell-based; details: 0.4% (w/v) added, infant fecal flora in SIEM, anaerobic, 8 hours, 37° C.; blank control defined as 0
Protocol: as §1
(§2) (2) Certain amount of standard ileum efflux culture medium (SIEM, with 0.047 g/L pectin, 0.047 g/L xyloglucan, 0.047 g/L arabinogalactan, 0.047 g/L amylose, 0.392 g/L starch, 24.0 g/L casein, 17.0 g/L Tween 80, 24.0 g/L bacto peptone, 0.4 g/L oxgall, and 0.2 g/L cysteine) is added into a 96-well microtitration plate. Then, the 0.1% of the standard culture solution of fecal flora is added. The percentage refers to the volume percentage of the standard ileum efflux culture medium. Then, 0.4% of the purified extracellular polysaccharide (“BD3526 extracellular polysaccharide” for short) obtained in Example 11 and 0.4% of the commercialized fructooligosaccharide (FOS for short) are added into different wells among the 96 wells respectively. The final volume of liquid in each well is 1.5 mL. Meanwhile, the blank control is arranged. They are anaerobically cultured for 8 hours under 37° C. The percentage refers to the mass-volume percentage of the final volume of the liquid in a well of the 96-well microtitration plate.
(§3) (3) Once the cultivation is completed, the fermentation broth is mixed with 250 μL of lysis buffer, […], of zirconium bead liquid (0.1 mm) and 200 μL of phenol solution. Then they are homogenized on the bead beater (BIO SPEC Inc. U.S.) for twice (2 minutes for each time). The DNA is extracted with DNA Kit (TIANGEN BIOTECH CO., LTD). Then, PCR-intestinal microarray detection method (SALAZAR N, GUEIMONDE M, HERNANDEZ-BARRANCO A M, et al. Exopolysaccharides produced by intestinal Bifidobacterium strains act as fermentable substrates for human intestinal bacteria. Applied and environmental microbiology, 2008, 74(15): 4737-45.) is used to analyze the number of floras in samples with respect to that of the blank control (standard solution of fecal flora cultured without adding polysaccharide).

B. breve = assay: as above; type: cell-based; details: 0.4% (w/v) added, infant fecal flora in SIEM, anaerobic, 8 hours, 37° C.; blank control defined as 0
Protocol: as §1, §2, §3

B. infantis = assay: as above; type: cell-based; details: 0.4% (w/v) added, infant fecal flora in SIEM, anaerobic, 8 hours, 37° C.; blank control defined as 0
Protocol: as §1, §2, §3

All bifidobacteria = assay: as above; type: cell-based, bifidobacteria in infants' fecal flora; details: 0.4% (w/v) added, 8 hours, 37° C.; for The increased log (ORF/mL) value of the flora in samples with respect to the blank control, All bifidobacteria: infant fecal flora in SIEM, anaerobic, blank control defined as 0
Protocol: as §1, §2, §3

human intestinal flora = assay: in-vitro culture of adult fecal flora, PCR-DGGE of V3 area for total bacteria; type: cell-based; details: 0.4% added, faeces of healthy adults, anaerobic, 24 hours, 37° C.
Protocol: (1) The faeces of 30 healthy adults (male or female, with the age range from 23 to 25, excluding those who have intestinal diseases or taking antibiotic drugs recently). They are dissolved in pH7.3-phosphate buffer (8 g/L-NaCl, 0.2 g/L-KCl, 1.15 g/L-NaHPO4, and 0.2 g/L-KH2PO4) and mixed uniformly. It is added into the culture system at a volume ratio of 1:10. Then, 0.4% of the purified extracellular polysaccharide (BD3526EPS for short) obtained in Embodiment 11 and 0.4% of the commercialized fructooligosaccharide (FOS for short) are added into the culture system respectively. Meanwhile, the blank control is arranged. They are anaerobically cultured for 24 hours under 37° C. The percentages refer to the mass-volume percentages of the culture system.
(2) Once the culture is completed, the phenol-chloroform method (ERCOLINI D, HILL P J, DODD C E. Bacterial community structure and location in Stilton cheese. Applied and environmental microbiology, 2003, 69(6): 3540-8.) is used to extract the DNA of the cultures and fecal flora. […]

fructooligosaccharide [FOS, reference compound]
The increased log (ORF/mL) value of the flora in samples with respect to the blank control, All bacteria (All bacteria): 0.12 log (ORF/mL) | The increased log (ORF/mL) value of the flora in samples with respect to the blank control, B. Longum (B. Longum): 0.37 log (ORF/mL) | The increased log (ORF/mL) value of the flora in samples with respect to the blank control, B. breve (B. breve): 1.18 log (ORF/mL) | The increased log (ORF/mL) value of the flora in samples with respect to the blank control, B. infantis (B. infantis): −0.121 log (ORF/mL) | The increased log (ORF/mL) value of the flora in samples with respect to the blank control, All bifidobacteria (All bifidobacteria): 1.07 log (ORF/mL)

levan [BD3526 extracellular polysaccharide]
The increased log (ORF/mL) value of the flora in samples with respect to the blank control, All bacteria (All bacteria): 0.448 log (ORF/mL) | The increased log (ORF/mL) value of the flora in samples with respect to the blank control, B. Longum (B. Longum): 0.36 log (ORF/mL) | The increased log (ORF/mL) value of the flora in samples with respect to the blank control, B. breve (B. breve): 0.81 log (ORF/mL) | The increased log (ORF/mL) value of the flora in samples with respect to the blank control, B. infantis (B. infantis): 0.017 log (ORF/mL) | brightness of PCR-DGGE stripes (FIG. 12), proliferation of bacteria in human intestinal flora, in words (human intestinal flora): significantly brighter than those of the FOS group and the blank control group | proliferation of the bifidobacteria in infants' fecal flora compared with the blank control group (FIG. 11), in words (All bifidobacteria): can also promote the proliferation of the bifidobacteria in infants' fecal flora | The increased log (ORF/mL) value of the flora in samples with respect to the blank control, All bifidobacteria (All bifidobacteria): 0.74 log (ORF/mL)
